Experimental data: patent publication US20230211362A1, “A METHOD OF COATING AN OCULAR PROSTHETIC DEVICE AND OTHER PROSTHETICS” (UEA Enterprises Limited, priority 2020, published 2023)
Where a name gives a salt, the structure may show the parent alone.

Experiments:
[1] = cited from earlier work
[2] = In vitro drug release tests of nanoelectrosprayed contact lenses in PBS 7.4 under sink conditions, HPLC (Example 4); format: physicochemical; conditions: zein film on contact lens (BIM1); 2 ml PBS 7.4, 35° C., 125 rpm; FIG. 32 bottom
Procedure: Glass vials containing 2 ml PBS 7.4 was incubated in a shaking incubator set at 35° C. with 125 rpm for 2 hours before in vitro experiments. All in vitro experiments were performed under sink conditions (i.e., the drug concentration within the in vitro dissolution medium was more than 10 times diluted in comparison to the saturated solubility of the drug in the medium). The nanoelectrosprayed lenses were placed into the vial and an aliquot of 1.5 ml was replaced with fresh PBS at regular intervals up to 24 hours (for KF the intervals were 0.5, 1, 3, 6, and 24 hours; for BIM the intervals were 0.25, 0.5, 0.75, 1, 2, 3, 4, 5, 6, and 24 hours). […] The total amount of ketotifen and bimatoprost sprayed on a contact lens was determined by the sum of the cumulative amount of the drug released during the in vitro study and the amount obtained from extraction.
The high-performance liquid chromatography system (Jasco, Japan) consists of a pump (PU-1580), an autosampler (AS-2055 Plus) and a 4-channel UV detector (UV-1570M). A Waters C18 column (250×4.6 mm i.d.; 5 μm particle size) was used under ambient conditions. The mobile phase of ketotifen fumarate and bimatoprost was prepared according to a method adopted from the literature. The mobile phase for ketotifen comprised methanol and 0.2% triethylamine (v/v) (80:20), running with 1 ml/min flow rate. […]

Compound | Log P [1] | pKa (acid) [1] | solubility in aqueous solutions ([1]; slightly soluble in aqueous solutions) [µg/mL] | bimatoprost release after 6 hours [2] [%] | bimatoprost released in the first 30 minutes [2] [%]
CN1CCC(=C2c3ccccc3CC(=O)c3sccc32)CC1 [Ketotifen fumarate] | 3.4 | 12.3 | 7.87 | – | –
CCNC(=O)CCC/C=C\C[C@@H]1[C@@H](/C=C/[C@@H](O)CCc2ccccc2)[C@H](O)C[C@@H]1O [bimatoprost] | – | – | – | 98 | 51
